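Test compounds were applied to cells in 96-well plates for 48 hours at 5 doses. TGI is the concentration that stops growth completely.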

For 13 molecules, TGI results are on record in PubChem BioAssay (NCI).

Assay in all cases: growth of human tumour cells (NCI), 48 h
Experiment [1] relates to 786-0 renal.
In experiment [2] the test system is CCRF-CEM leukemia.
For experiment [3], the system named is K-562 leukemia.
Experiment [4] deals with MDA-MB-435.
For experiment [5], the system named is OVCAR-3 ovarian.
Experiment [6] relates to SF-539 CNS.
Experiment [7] concerns SW-620 colon.
The test system of experiment [8] is TK-10 renal.
In experiment [9] the test system is U251 CNS.
The test system of experiment [10] is UO-31 renal.

Take `O=C1C(Cl)=C(N2CCN(c3ccccn3)CC2)C(=O)c2ncccc21`: the TGI in experiment [1] was found to be 3.12 µM; in experiment [2], 3.11 µM; in experiment [3], 5.78 µM; in experiment [4] it was 3.17 µM; in experiment [5], 3.21 µM; in [6] it was 3.94 µM. Further, the TGI in [7] turned out to be 3.79 µM; in experiment [8], 9.75 µM; in experiment [9], 15.2 µM; in experiment [10], 3.3 µM.
`CCC(=O)NCCc1c2c3c(ccnc3c3ncsc13)-c1ccccc1N2`: the TGI in experiment [1] was greater than 55.4 µM; in experiment [2], greater than 100 µM; in experiment [3] it was greater than 100 µM; in experiment [4], greater than 64.5 µM; in [5] it was greater than 66.5 µM; in [6] it was 7.52 µM. The TGI was greater than 100 µM in experiment [7], greater than 100 µM in [8], greater than 79.7 µM in experiment [9] and greater than 100 µM in experiment [10].
In the case of `CC(Oc1ccccc1Cl)C(=O)NN1C(=O)CSC1c1ccc(Cl)cc1` (stereo not given), the TGI in experiment [1] was 28.6 µM; in experiment [2] it was 0.381 µM; in [3], 30.6 µM; in [4], 31.1 µM; in experiment [5] it was 61.9 µM; in [6] it was 65.3 µM. Moreover, the TGI in experiment [7] is 55.2 µM; in experiment [8], 55.9 µM; in experiment [9] it was 31.6 µM; in experiment [10], greater than 100 µM.
In the case of `NC(N)=NC(N)=Nc1ccccc1` (tested in a mixture with another compound), the TGI in experiment [1], in experiment [2], in experiment [3], in experiment [4], in experiment [5] and in experiment [6] was greater than 100 µM in each case. In addition, the TGI in experiment [7], in [8], in [9] and in experiment [10] was greater than 100 µM throughout.
As to `O=c1[nH]c(=O)n(C/C=C/CBr)nc1Br`, the TGI in experiment [1] is 26.3 µM; in [2], 30.7 µM; in [3], 47.7 µM; in experiment [4], 27.2 µM; in [5], 23.9 µM; in experiment [6], 27.7 µM. Moreover, the TGI in experiment [7] stood at 29.5 µM; in experiment [8], 31.7 µM; in experiment [9] it was 21.8 µM; in experiment [10], 32.5 µM.
As for `COc1ncnc2c1cnn2Cc1cn(CCCCO)nn1`, the TGI in experiment [1], in [2], in experiment [3], in experiment [4], in experiment [5] and in experiment [6] was greater than 100 µM each time. Besides, the TGI in [7], in experiment [8], in experiment [9] and in experiment [10] was greater than 100 µM each time.
In the case of `COc1ccc(Nc2nc3ccccc3nc2C(=O)O)cc1OC`, the TGI in [1], in [2], in experiment [3], in [4], in [5] and in [6] was greater than 100 µM each time. The TGI was greater than 100 µM in experiment [7], greater than 100 µM in experiment [8], greater than 100 µM in experiment [9] and 97.8 µM in [10].
On to `Oc1cc(CN2COc3ccccc32)c(O)cc1CNC1CCCCC1`, for which the TGI in experiment [1] was 34 µM; in [2], greater than 100 µM; in [3] it was 52.9 µM; in experiment [4], 60.1 µM; in [5], greater than 100 µM; in experiment [6], 34.6 µM. Further, the TGI in experiment [7] was greater than 100 µM; in experiment [8] it was 38 µM; in [9], 32.5 µM; in [10] it was greater than 100 µM.
As for `O=C(CN(c1ccc(S(=O)(=O)O)cc1)c1ccc(S(=O)(=O)O)cc1)Nn1cnc2ccc(S(=O)(=O)N(c3ccc(S(=O)(=O)O)cc3)c3ccc(S(=O)(=O)O)cc3)cc2c1=O`, the TGI in experiment [1], in experiment [2], in experiment [3], in experiment [4], in experiment [5] and in [6] was greater than 100 µM each time. For the same molecule, the TGI in [7], in [8], in [9] and in [10] was greater than 100 µM in each case.
Consider `CC(C)(C)NC(=O)C12C3C4C1C1C2C3C41C(=O)NC(C)(C)C` (stereo not given), for which the TGI in experiment [1], in [2], in experiment [3], in experiment [4], in experiment [5] and in experiment [6] was greater than 100 µM in each case. Moreover, the TGI in [7], in experiment [8], in [9] and in [10] was greater than 100 µM in each case.
`c1ccc(C2=Nc3cccc4cccc(c34)N2)cc1`: the TGI was greater than 61.8 µM in [1]; 28.7 µM in [2]; greater than 72.9 µM in experiment [3]; greater than 85.8 µM in [4]; 45.2 µM in experiment [5]; greater than 100 µM in [6]. The TGI in experiment [7] was 39.3 µM; in experiment [8], greater than 72 µM; in [9], greater than 100 µM; in experiment [10] it was greater than 56.1 µM.
Regarding `COc1cccc2cc(C(=O)Nc3ccccn3)c(=N)oc12`, the TGI was greater than 100 µM in [1]; greater than 100 µM in experiment [2]; greater than 100 µM in experiment [3]; greater than 100 µM in experiment [4]; 88.4 µM in experiment [5]; greater than 100 µM in experiment [6]. Further, the TGI in experiment [7], in experiment [8], in [9] and in [10] was greater than 100 µM throughout.
For `COc1ccc2c(c1)C(N)=C(Cc1ccncc1)C2=O`, the TGI in experiment [1], in [2], in [3], in [4], in experiment [5] and in experiment [6] was greater than 100 µM throughout. For the same molecule, the TGI in experiment [7], in [8], in [9] and in experiment [10] was greater than 100 µM each time.
